Literature values in PMC9655391 (International Journal of Molecular Sciences, 2022).

Details: oral administration; ref [16],[20],[21],[22]

CCCCc1nc(Cl)c(CO)n1Cc1ccc(-c2ccccc2-c2nn[nH]n2)cc1 [LP, losartan potassium]
bioavailability: 32%
